The values below come from patent publication US8252832B2, “Kinesin inhibitors as cancer therapeutics” (Novartis AG, priority 2007, dated 2012).

Structures are written as SMILES. Marks after values point to notes of the source that are not given here.

Assay [1] concerns KMS-11-luc disseminated disease. Kind of assay: KMS-11-luc disseminated disease model, tumor response and survival. The format is in vivo, mouse. As for the experimental part: Experiments were performed using immunodeficient SCID-Beige female mice approximately 7-8 weeks old (Charles River Laboratories, Wilmington, Mass.). […] Routine animal care and assurance of welfare were as described above.
Human KMS-11-luc multiple myeloma cells were obtained from the laboratory of Suzanne Trudel at the University of Toronto (Ontario, Canada) and tested to be free of Mycoplasma sp. and murine viruses in the IMPACT1 PCR assay panel (RADIL, University of Missouri, Columbia, Mo.). Prior to our receiving this cell line, it had been stably engineered to express luciferase by retroviral transfection of the pGC-gfp/luc vector. KMS-11-luc cells were grown in Iscove's medium supplemented with 2 mmol/L L-glutamine (Mediatech, Inc., Hemdon, Va.) and 10% fetal bovine serum (JRH Biosciences, catalog #12003-1000M). These cells were grown as suspension cultures, maintained at 37° C. in a humidified atmosphere containing 5% carbon dioxide. Cells were cultured for fewer than 10 passages prior to use. Cells were harvested at approximately 2 million cells/mL, and centrifuged at ˜800×g for 5 minutes at 4° C. and then resuspended in a 1:1 mixture of cold Hank's balanced salt solution (HBSS) and Matrigel™ (Mediatech Inc., catalog #21-021-CV; BD Biosciences, catalog #354234, respectively) at a concentration of 50 million cells/mL for implantation subcutaneously (injection volume of 0.2 mL). Alternatively, for the disseminated disease model, cells were prepared only in cold HBSS at a concentration of 100 million cells/mL for intravenous (i.v.) implantation via the tail vein (injection volume of 0.1 mL).
Compound IIa and SB-715992 (free base) were formulated in 20% Captisol for a dose volume of 8 mL/kg. Doses were adjusted to each animal's body weight.
For the efficacy evaluation in the disseminated disease model, 10 million cells in HBSS were injected i.v. via the tail vein in a total volume of […]. Forty mice were randomized and enrolled on study 10 days post-implant, with a mean photon count in the leg bones (right+left) of approximately 9×10^5 photons/second, as determined by bioluminescence imaging. Approximately 10 minutes prior to imaging, mice were injected i.p. with 150 mg/kg luciferin (Xenogen Corporation, Alameda, Calif.), followed by anesthetization with isoflurane. Photon emission was measured using a charge coupled device camera in the IVIS imaging system (Xenogen Corporation). Briefly, a gray-scale image of the mice was captured, followed by an overlay of a bioluminescence map representing the spatial distribution of photons detected from cleaved luciferin in the cancer cells expressing luciferase. Signal intensity was quantified using a customized version of the IGOR Pro version 4.09A Software (WaveMetrics, Inc., Lake Oswego, Oreg.) called Living Image version 2.50.2 (Xenogen). The sum of all detected photon counts from the right+left legs were determined. Bioluminescence of cancer cells in the animals was measured by imaging on designated days until the first mice developed hind limb paralysis due to disease burden, the main end point for when to humanely euthanize mice. The day of euthanasia for each mouse was recorded, and the remaining percentage of mice surviving was plotted over time (Kaplan-Meier survival analysis). P values were calculated using the log-rank test (GraphPad Prism 4.0 software) to assess differences between treated and control groups (p<0.05 was considered significant). […] Data analysis was as described above.

Assay [2] relates to primary blast cells from AML patients. Kind of assay: Colony formation assay in methylcellulose containing medium, AML blasts. The format is cell-based, human. As to the method: (§1) Primary blast cells from AML patients were tested for sensitivity to compound IIa as shown below. Frozen AML blasts from peripheral blood were obtained from AllCell LLC. (Emeryville, Calif.). Three frozen vials containing ˜1×10^7 PBMCs were purchased. Peripheral blood mononuclear cells (PBMCs) from three newly diagnosed AML patients with a high percentage of blasts (#06-188, 80%; #06-366, 88%; #06-503, 73%) were cultured for several weeks and treated with the KSP inhibitors. The vials were rapidly thawed and the cells were cultured in Iscove's DMEM supplemented with 10% FBS and the following cytokines all at 10 ng/ml: GM-CSF, G-CSF, SCF, IL-3, and IL-6 (all from R&D Systems). Three assays were performed on the cells as follows: • CellTiter-Glo® assay on AML blasts. PBMCs containing AML blasts were seeded in 96-well plates (5000/well) and treated with various concentrations of the compound IIa (10 pM to 10 nM) for 48 hours before cells survival was measured as described above. GI50 values (nM) were calculated as for cell lines. • Cell cycle analysis using propidium iodide staining. […] The DNA content of the fixed and stained cells was analyzed by the BD FACSCalibur flow cytometer using the CellQuest software. • Colony formation assay in methylcellulose containing medium. […] Colonies were counted under a microscope after 2 weeks. […]

The test system is the same in assay [3]. Description: Cell cycle analysis using propidium iodide staining, AML blasts. The assay is classed as cell-based, human. The note with it: 0.2 and 2 nM. As to the method: as §1

For the compound `CC(C)(C)[C@H](c1nc(-c2cc(F)ccc2F)cn1Cc1ccccc1)N(CC[C@H](N)CF)C(=O)CO` [Compound IIa], the “T/C, Day 13 (%)” value in assay [1] (0.25 mg/kg, q4d × 3, i.v) is 15%; in assay [1] (0.5 mg/kg, q4d × 3, i.v), 0.7* %. In addition, the “Δ Tumor Bioluminescence, Day 13” value was 2.2 × 10^7 ± 1.1 × 10^6 photons/sec in assay [1] (0.25 mg/kg, q4d × 3, i.v); 1.1 × 10^6 ± 5.8 × 10^5 photons/sec in assay [1] (0.5 mg/kg, q4d × 3, i.v); −4.3 × 10^5 ± 1.7 × 10^5 photons/sec in assay [1] (1 mg/kg, q4d × 3, i.v.). The “Mean Day of Survival” value was 29** day in assay [1] (0.25 mg/kg, q4d × 3, i.v., listed as COMPOUND IIa); 29 days in assay [1] (0.25 mg/kg, q4d × 3, i.v., listed as compound IIa); 35** day in assay [1] (0.5 mg/kg, q4d × 3, i.v., listed as COMPOUND IIa); 35 days in assay [1] (0.5 mg/kg, q4d × 3, i.v., listed as compound IIa); 52** day in assay [1] (1 mg/kg, q4d × 3, i.v., listed as COMPOUND IIa); 52 days in assay [1] (1 mg/kg, q4d × 3, i.v., listed as compound IIa). Moreover, in assay [1] (1 mg/kg, q4d × 3, i.v.), the “Regression, Day 13 (%)” value is 47%. The colonies result in assay [2] (0.5 nM and above, samples #06-366, #06-188, #06-503, 2 weeks) is “absent”. In assay [2] (sample #06-366, 0.2 nM, 2 weeks), the number of colonies entry is “markedly reduced”. The “cell cycle profile, 4N population” value in assay [3] (sample #06-366, 24 hours) was “increase in the number of cells arrested in mitosis”. Besides, in assay [3] (sample #06-366, 48 hours), the “cell cycle profile, <2N population” value is reported as “increase in the number of dying cells”.
